# Assay results: ChEMBL document CHEMBL1932919, “Dirlotapide as a model substrate to refine structure-based drug design strategies on CYP3A4-catalyzed metabolism” (Bioorg Med Chem Lett, 2012)
# Test system: Liver microsomes
# Test: Drug metabolism in human liver microsomes at 20 mM
# Assay type: ADME, Microsome
# Conditions: 20000 µM; call rule not given here
smiles,measurement,value
CN(Cc1ccccc1)C(=O)[C@@H](NC(=O)c1cc2cc(NC(=O)c3ccccc3-c3ccc(C(F)(F)F)cc3)ccc2n1C)c1ccccc1 [DIRLOTAPIDE],Drug metabolism,Active
